Results: patent US20250057859A1, “CANNABICHROMENEQUINONE AND ANALOGUES THEREOF, AND METHOD OF USING COMPOSITIONS THEREOF AS ANTI-INFLAMMATORY AGENTS” (Juva Life, Inc., priority 2021, published 2025)
pEC50, pIC50: −log10 of the molar value.

Key:
[1] = biological target: T1, cannabinoid receptor 2 (CNR2) (Homo sapiens, UniProt P34972); assay: CB2 receptor agonist assay (cAMP Hunter eXpress, CNR2 CHO-K1); type: cell-based
T1 construct: host or cells: CHO-K1
Method: (§1) The assays were performed in cAMP Hunter eXpress cells engineered to overexpress naturally Gi/Go-coupled wildtype cannabinoid receptor 1 (CNR1) or cannabinoid receptor 2 (CNR2) in CHO-K1 cell type. In these cells, CB1 and/or CB2 agonists inhibit production of intracellular cAMP in response to stimulation with Forskolin. cAMP levels are determined using luminogenic detection reagents provided with the Hunter eXpress cAMP detection kit.
(§2) • Assay ready CNR1 CHO-K1 cells were obtained from Eurofins/Discover X, cat #95-0071E2 • Assay ready CNR2 CHO-K1 cells were obtained from Eurofins/Discover X, cat #95-0183E2 • Hunter eXpress cAMP detection kit was also from Discover X. The kit includes all cAMP detection reagents, Forskolin, complete cell plating medium and cell assay buffer.
(§3) The Assay-Ready CNR1 CHO-K1 or CNR2 CHO-K1 cells were thawed and re-suspended in pre-warmed Assay Complete plating medium and inoculated into 96well plate at a density of 30,000 cells in 100 μL. The plates with cells were incubated for 24 h at 37° C. in 5% CO2. […] The cells were stimulated with the Forskolin/compound buffer for 30 min. […] The plate was read on Biotek Synergy Neo2 reader in luminescent mode. […] Relative luminescence units (RLUs) were plotted against compound concentration to determine apparent EC50 values of the agonist compounds.

[2] = biological target: T2, cannabinoid receptor 1 (CNR1) (Homo sapiens, UniProt P21554); assay: CB1 receptor agonist assay (cAMP Hunter eXpress, CNR1 CHO-K1); type: cell-based; conditions: Forskolin-stimulated CNR1 CHO-K1
T2 construct: host or cells: CHO-K1
Method: as §1, §2, §3

[3] = in vitro; conditions: human
Method: The half maximal inhibition concentration (IC50) for each compound was determined by harvesting cells during the logarithmic growth period and then counting cell number using hemocytometer. […] Then, using a Biomek FX, test articles were serially diluted (10 mM top, 3× dilution intervals) along with a reference inhibitor (1 mM top, 3× dilution intervals) in acoustic grade Labcyte plate. Then, using an acoustic dispenser (Labcyte550), compounds were added as serially diluted to plate with cells: 90 nL of serially diluted compounds per well. 90 nL DMSO is added to control wells. Test plates were incubated for 72 h in the humidified incubator at 37° C. with 5% CO2. 25 μL of reconstituted Cell titer Glo reagent was added to each well. Each test plate was then incubated for 20 min at room temperature. Luminescence was then recorded using Synergy Neo2Multi-mode Reader.
In order to calculate intersect IC50, a dose-response curve was fitted using nonlinear regression model with a sigmoidal dose response.
The formula for calculating surviving rate is shown below, and the intersect IC50 was calculated according to the dose-response curve generated by the software:
The compounds of interest were assessed cell viability in the HL-60 acute promyelocytic leukemia cell line (ATCC® CCL-240). […] Culture medium were purchased from ATCC, USA.

[4] = tested on: SK-MEL-28 melanoma cell line; assay: SK-MEL-28 cell line toxicity (Cell titer Glo viability); type: cell-based; conditions: Homo sapiens, SK-MEL-28, 72 h
Method: (§4) Culture medium were purchased from ATCC, USA.
(§5) 90 nL DMSO is added to control wells. […] Luminescence was then recorded using Synergy Neo2Multi-mode Reader.

[5] = as above; type: cell-based; conditions: human, SK-MEL-28 melanoma cells, 72 h
Method: as §4, §5

[6] = tested on: PC3 prostate adenocarcinoma cell line; assay: PC3 cell line toxicity (Cell titer Glo viability); type: cell-based; conditions: Homo sapiens, PC-3; PC3, 72 h
Method: as §5, §4

[7] = PC3 cell line toxicity (Cell titer Glo viability); type: cell-based; conditions: human, PC3 prostate adenocarcinoma cells, 72 h
Method: as §5, §4

T1 sequence (P34972 whole entry): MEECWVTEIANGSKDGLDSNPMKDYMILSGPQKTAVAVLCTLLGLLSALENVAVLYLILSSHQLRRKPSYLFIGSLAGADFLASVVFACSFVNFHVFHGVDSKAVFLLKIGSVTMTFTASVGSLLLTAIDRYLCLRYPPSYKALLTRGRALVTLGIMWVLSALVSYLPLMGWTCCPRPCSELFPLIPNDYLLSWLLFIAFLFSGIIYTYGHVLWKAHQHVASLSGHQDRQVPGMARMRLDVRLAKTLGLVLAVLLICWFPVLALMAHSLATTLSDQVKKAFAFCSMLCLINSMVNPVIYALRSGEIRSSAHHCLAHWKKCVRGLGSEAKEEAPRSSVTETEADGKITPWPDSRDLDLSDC
T2 sequence (P21554 whole entry): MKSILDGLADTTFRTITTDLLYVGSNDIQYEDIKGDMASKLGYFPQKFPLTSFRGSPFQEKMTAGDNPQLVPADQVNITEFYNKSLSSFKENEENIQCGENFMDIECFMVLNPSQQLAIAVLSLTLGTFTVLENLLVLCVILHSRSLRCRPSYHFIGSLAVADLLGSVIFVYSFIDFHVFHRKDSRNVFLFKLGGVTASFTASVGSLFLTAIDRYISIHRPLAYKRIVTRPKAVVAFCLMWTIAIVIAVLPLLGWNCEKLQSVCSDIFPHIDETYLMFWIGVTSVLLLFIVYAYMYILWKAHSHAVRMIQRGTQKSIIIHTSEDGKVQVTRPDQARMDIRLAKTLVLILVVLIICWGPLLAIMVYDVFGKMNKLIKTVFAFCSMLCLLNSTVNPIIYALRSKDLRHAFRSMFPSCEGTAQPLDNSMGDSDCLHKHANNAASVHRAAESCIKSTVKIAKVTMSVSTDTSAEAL

For `CCCCCc1cc(O)c2c(c1)OC(C)(C)C1CCC(CO)=CC21` (centres unmarked) [11-hydroxy-THC], the pEC50 ([1]; agonist, cAMP, Forskolin-stimulated CNR2 CHO-K1) was 7.29, the “Selectivity for CB2 over CB1” value ([1]; ratio of EC50 values) was 0.02 fold and the pEC50 [2] was 9.00.

With `CN[C@@H]1C[C@H]2O[C@@](C)([C@@H]1OC)n1c3ccccc3c3c4c(c5c6ccccc6n2c5c31)C(=O)NC4` [Staurosporine, staurosporine, reference compound] the viability at 0.00017 µM [3] was 98.3%, the viability at 0.00051 µM [3] was 96.5% and the viability at 0.0015 µM [3] was 98.3%. For the same molecule, the viability at 0.0046 µM [3] was 90.4%, the viability at 0.014 µM [3] was 66.6% and the viability at 0.041 µM [3] was 36.3%. The viability at 0.12 µM [3] was 27.7%, the viability at 0.37 µM [3] was 18.7% and the viability at 1.1 µM [3] was 13.9%. The viability at 3.3 µM [3] was 11.7%, the viability at 10 µM [3] was 10.4% and the viability at 30 µM [3] was 9.6%. The pIC50 [4] was roughly 6.68, the viability at 72 h, 0.00017 µM ([5]; SK-MEL-28, 0.00017 uM) was 96.2% and the viability at 72 h, 0.00051 µM ([5]; SK-MEL-28, 0.00051 uM) was 94.9%. The viability at 72 h, 0.0015 µM ([5]; SK-MEL-28, 0.0015 uM) was 96.7%, the viability at 72 h, 0.0046 µM ([5]; SK-MEL-28, 0.0046 uM) was 94.1% and the viability at 72 h, 0.014 µM ([5]; SK-MEL-28, 0.014 uM) was 92.9%. It also gave a viability at 72 h, 0.041 µM ([5]; SK-MEL-28, 0.041 uM) of 70%, a viability at 72 h, 0.12 µM ([5]; SK-MEL-28, 0.12 uM) of 53.9% and a viability at 72 h, 0.37 µM ([5]; SK-MEL-28, 0.37 uM) of 41.1%. The viability at 72 h, 1.1 µM ([5]; SK-MEL-28, 1.1 uM) was 33%, the viability at 72 h, 3.3 µM ([5]; SK-MEL-28, 3.3 uM) was 17.3% and the viability at 72 h, 10 µM ([5]; SK-MEL-28, 10 uM) was 8.55%. For the same molecule, the viability at 72 h, 30 µM ([5]; SK-MEL-28, 30 uM) was 8.85%, the pIC50 [6] was roughly 8.40 and the viability at 72 h, 0.00017 µM ([7]; PC3, 0.00017 uM) was 102%. For the same molecule, the viability at 72 h, 0.00051 µM ([7]; PC3, 0.00051 uM) was 92.2%, the viability at 72 h, 0.0015 µM ([7]; PC3, 0.0015 uM) was 67.1% and the viability at 72 h, 0.0046 µM ([7]; PC3, 0.0046 uM) was 43.2%. For the same molecule, the viability at 72 h, 0.014 µM ([7]; PC3, 0.014 uM) was 34.5%, the viability at 72 h, 0.041 µM ([7]; PC3, 0.041 uM) was 12.7% and the viability at 72 h, 0.12 µM ([7]; PC3, 0.12 uM) was 10.3%. It also gave a viability at 72 h, 0.37 µM ([7]; PC3, 0.37 uM) of 9.5%, a viability at 72 h, 1.1 µM ([7]; PC3, 1.1 uM) of 8.4% and a viability at 72 h, 3.3 µM ([7]; PC3, 3.3 uM) of 8.1%. It also gave a viability at 72 h, 10 µM ([7]; PC3, 10 uM) of 6.8% and a viability at 72 h, 30 µM ([7]; PC3, 30 uM) of 7.1%.
